# Assay results from patent US20110028400A1, “SULFATED UNSATURATED DISACCHARIDIC CHONDROITIN SULFATE IN CONNECTIVE TISSUE PROTECTION AND REPAIR” (NESTEC S.A., priority 2008, published 2011).
# Where a name gives a salt, the structure may show the parent alone.
# Experiments:
# [1] = tested on: explants of articular cartilage; experiment: IL1β-induced GAG (35S) release from cultured bovine articular cartilage explants; assay type: cell-based; settings: for slowing down cytokine-induced cartilage destruction in vitro: comparison among chondroitin disaccharides and higher molecular weight forms
# Source text: It was investigated here whether normal commercially available chondroitin sulphate and different low molecular weight forms of chondroitin sulphate including disaccharides could inhibit the degradation of aggrecan in cultured explants of articular cartilage. Explants from healthy bovine articular cartilage were put in culture and loaded with S^35. S^35 is incorporated in the glycosaminoglycan chains of the aggrecan molecules of the cartilage and its release in the media is considered as a surrogate marker of glycosaminoglycan release and aggrecan catabolism. However, explants from healthy bovine articular cartilage naturally display a very low catabolic activity which is not ideal to test the anti-catabolic activity of potential bioactives. To improve the sensitivity of the assay, the explants were cultured in presence of IL1β, a pro-inflammatory cytokine, known to act as a potent inducer of MMP and aggrecanase activities. The different low molecular weight forms of chondroitin sulphate were added to the culture media together with IL1β to see whether they can decrease the IL1β-induced aggrecan catabolism. In addition, the effects of the low molecular weight forms of chondroitin sulphate on IL1β-induced NO production were also investigated. Nitric oxide is a reactive oxygen species known to participate in the progression of osteoarthritis.
# (§1) The articular cartilage explants were dissected out of the metacarpophalangeal joint of old cows (8-10 years). The skin was removed from the feet. The articulation was opened transversally. Intraarticular ligaments were transected. […] Under the hood, similar quantities of cartilage were distributed between the wells of a 24-wells plate containing 500 μl of medium (DMEM+20% FBS, 1% penicillin/streptomycin, 0.1% gentamycin) per well. […]
# The following protocol is based on Campbell et al., Arch Biochem Biophys 234(1): 275-289 and Hascall V C et al., Arch Biochem Biophys 224(1): 206-223. […] After 72 hours, several washes were performed to eliminate the non-incorporated radioactivity. The explants were then treated for 72 hours, after which the supernatants were collected and the amount of radioactivity released in the medium was measured with a beta counter, as a marker of GAG catabolism. The radioactivity present in the explants was also measured and used to normalize the amount of radioactivity released into the media. The radioactivity was expressed in DPM ([…] per minute) and the GAG release is assessed by the following formula:
# GAG release=radioactivity in the supernatants/(radioactivity in the supernatants+radioactivity in the explants)
# [2] = tested on: explants of articular cartilage; experiment: IL1β-induced NO production in cultured bovine articular cartilage explants; assay type: cell-based; settings: 500 μg/ml, with 50 ng/ml IL1β, 72 hours, 4 experiments
# Source text: It was investigated here whether normal commercially available chondroitin sulphate and different low molecular weight forms of chondroitin sulphate including disaccharides could inhibit the degradation of aggrecan in cultured explants of articular cartilage. Explants from healthy bovine articular cartilage were put in culture and loaded with S^35. S^35 is incorporated in the glycosaminoglycan chains of the aggrecan molecules of the cartilage and its release in the media is considered as a surrogate marker of glycosaminoglycan release and aggrecan catabolism. However, explants from healthy bovine articular cartilage naturally display a very low catabolic activity which is not ideal to test the anti-catabolic activity of potential bioactives. […]
# as §1, with “years).” for “years). The skin was removed from the feet. The articulation was opened transversally. Intraarticular ligaments were transected.”
# For NO measurements a protocol based on Gilliam et al., Anal Biochem 212(2): 359-365 was used. […] After ten minutes, absorbance was measured at 538 nm. To quantify the amount of NO in the supernatants, a standard curve was prepared using sodium nitrite (0-60 μM).
# [3] = rat intestinal loop model, bioavailability; assay type: in vivo
# [4] = tested on: knee OA; settings: cited from earlier work
# [5] = tested on: knee synovial fluids; settings: 10 days of 800 mg once a day; cited from earlier work
# [6] = tested on: cartilage damages and proteoglycan loss; settings: 20 mg/kg body weight/day, 11 days before to 21 days after chymopapain injection; cited from earlier work
# [7] = tested on: proteoglycan depletion in cartilage; settings: 100 and 300 mg/kg body weight/day, starting 2 weeks before bradikinin injections; cited from earlier work
molecule,measurement,setting,value
"CC(=O)N[C@H]1C(O)O[C@H](CO)[C@H](OS(=O)(=O)O)[C@@H]1O (stereo partly shown) [GalNac 4S, 4 sulfated N-acetylgalactosamine]",IL1β-induced GAG release (percentage of radioactivity release),"[1]; dose range 500-50-5 μg/ml, with 50 ng/ml IL1β, 72 hours, FIG. 2",no effect
"CC(=O)N[C@H]1C(O)O[C@H](CO)[C@H](OS(=O)(=O)O)[C@@H]1O[C@@H]1OC(C(=O)O)=C[C@H](O)[C@H]1O (stereo partly shown) [Δdi4S, 4-sulfated unsaturated disaccharidic chondroitin sulfate]",amount of GAG released in the supernatants compared to IL1β alone,"[1]; 500 μg/ml, with 50 ng/ml IL1β, 72 hours, 4 independent experiments",significantly (p<0.05) decreased
same,slowing down cytokine-induced cartilage destruction in vitro,[1],by far the most effective compound
same,amount of NO in the supernatants compared to IL1β alone,[2],significantly (p<0.05) decreased
same,bioavailability,[3],more bioavailable than regular high molecular weight chondroitin sulfate
Chondroitin sulfate [CS],slowing down cytokine-induced cartilage destruction in vitro,[1],did not have any significant effect
same,improvement of the Lesquesne index versus diclofenac,"[4]; 400 mg of CS 3 times a day, double-blind RCT",slower than 50 mg of diclofenac
same,mean and minimum joint space width and joint space surface area on X-rays,"[4]; 800 mg CS, one year double-blind placebo-controlled RCT",decreased significantly in the placebo group but not in the 800 mg CS group
same,joint space narrowing,"[4]; 800 mg once a day, 2-year double-blind RCT, placebo mean joint space loss 0.14 mm",prevented joint space narrowing
same,function versus placebo,"[4]; 1000 mg per day, one trial",did not improve function better than placebo
same,"osteoarthritic symptoms, meta-analyses",[4]; 3 meta-analyses,superior to placebo
same,spontaneous pain and mobility versus placebo,"[4]; 6 of 7 double-blind placebo-controlled RCTs, 3 to 24 months, knee OA",more efficient than placebo
same,"pain and mobility, dose comparison",[4]; 800 and 1200 mg once a day,more effective on pain and mobility than placebo or 200 mg
same,"mobility, 1200 mg once a day versus 400 mg three times a day",[4]; both superior to placebo,No statistical significant difference
same,time before patients detect a significant difference in pain and mobility,"[4]; human, in vivo",at least 2 weeks
same,time required to reach full symptom relief,"[4]; human, in vivo",up to 2 months
same,mobility after intermittent treatment,"[4]; two 3 month-long periods in a year, 800 mg once a day",lasting effects by improving mobility compared to placebo
same,persistence of effects after termination of treatment,[4]; versus diclofenac,persisted longer than diclofenac effects
same,"activities of collagenase, phospholipase A2 and N-acetylglucosaminidase in knee synovial fluids",[5],decreasing
same,viscosity and hyaluronate concentration in knee synovial fluids,[5],significantly increased
same,cartilage damages and proteoglycan loss,[6],decreased cartilage damages and proteoglycan loss
chondroitin-6 sulfate,proteoglycan depletion in cartilage,[7],reduced or prevented
